Measured values as given in paper PMC11521309, “A novel 4-aminoquinoline chemotype with multistage antimalarial activity and lack of cross-resistance with PfCRT and PfMDR1 mutants” (PLOS Pathogens, 2024).
Values joined by “and” are separate entries in the source; they are usually repeats but may differ in a detail not shown here. Identical values can stand only once.

Experiments:
[1] = system: P. berghei PbGFP-Luccon liver stage; assay: In vitro inhibition of liver stage infection of Huh-7 cells, bioluminescence; type: cell-based, Plasmodium berghei; details: 10 nM, positive control
Method: In vitro inhibition of Plasmodium liver stage infection was assessed using bioluminescence data from Huh-7 cells infected with a firefly-luciferase-expressing P. berghei line, PbGFP-Luccon, in the presence of various compound concentrations. […] One day before drug treatment and infection, 10^4 Huh-7 cells/well were seeded in 96-well plates. The medium was then replaced by an infection medium (culture medium supplemented with 50 μg/mL gentamycin and 0.8 μg/mL amphotericin B) containing desired concentrations of test compounds. Fresh sporozoites recovered from salivary glands of infected female Anopheles stephensi mosquitoes were added to seeded Huh-7 cells at a 1:1 proportion, followed by centrifugation at 1700g for 5 minutes and incubation for 46 hours at 37°C under 5% CO2. Compound toxicity against Huh-7 cells was assessed by measuring […] using the Alamar Blue assay (Invitrogen). IC50 values were calculated using nonlinear regression analysis (GraphPad Prism version 9).

PfCRT 7G8 isoform = assay: [3H]CQ uptake in PfCRT-containing proteoliposomes; type: biochemical, Plasmodium falciparum; details: 1 μM; PfCRT 7G8, 7G8^F145I and 7G8^C350R
Method: Purified PfCRT variants were reconstituted in preformed liposomes made of E. coli total lipids:cholesteryl hemisuccinate 97:3 (w/w) at a protein-to-lipid ratio of 1:150 (w/w). The lumen of the proteoliposomes was composed of 100 mM KPi, pH 7.5, and 2 mM β-mercaptoethanol. Uptake of [^3H]CQ (1 Ci/mmol) or [^3H]PPQ (1 Ci/mmol) was performed by diluting PfCRT-containing proteoliposomes (30 ng of PfCRTper reaction) in an uptake buffer containing 100 mM Tris/MES, pH 5.5, in the presence or absence of 1 μM of the test compounds. In addition, 1 μM valinomycin was added to the reaction to generate a K^+ diffusion potential-driven membrane potential (ΔΨ). […] Filters were dried and incubated in a scintillation cocktail, and the radioactivity captured on the filters was counted in a Hidex SL300 scintillation counter. The efficiency of detection was calculated with a standard curve of known concentrations of each radiolabeled compound, and this was used to transform decays per minute (dpm) into pmol. The nonspecific interaction of each compound with nitrocellulose filters was determined by measuring mock uptake in the absence of liposomes or proteoliposomes. These values (determined for each experiment) were used to calculate background uptake in liposomes or proteoliposomes. […]

[2] = system: P. falciparum NF54-Pfs16-GFP-Luc stage IV-V gametocytes; assay: Mature gametocyte (stages IV-V) viability, luciferase, 48 h; type: cell-based, Plasmodium falciparum; details: 5 μM
Method: P. falciparum NF54-Pfs16-GFP-Luc (MRA-1217), a highly gametocyte-producing strain, was cultured following standard procedures. NF54-Luc ABS parasites were sorbitol-synchronized as previously described and cultured to reach 8–10% parasitemia as mature trophozoites prior to starting gametogenesis induction via nutrient deficit stress. Briefly, stress was induced by replacing only 40% of the culture medium and returning cultures to a 37°C incubation. Cultures were treated with 50 mM N-acetylglucosamine for 10 days to remove ABS parasites. Mature gametocytes (stages IV-V) were isolated using magnetic columns and incubated at 2% gametocytemia and 1.5% hematocrit in 96-well plates containing the test compounds for 48 hours at 37°C, following standard P. falciparum culturing conditions. Methylene blue was used as a gametocytocidal control alongside drug-free wells. Luciferase activity was assessed by adding 40 μL of luciferin substrate (Promega) to 40 μL of parasite lysates and detecting bioluminescence at an integration constant of 10s with the BioTek Cytation 5 Cell Imaging Multimode Reader.

[3] = system: P. falciparum 3D7 ABS parasites; assay: ABS parasite survival assay, 72 h, flow cytometry; type: cell-based; details: Plasmodium falciparum, 3D7, ABS parasites, N = 3; read-out: IC50 3D7
Method: (§1) P. falciparum ABS parasites were cultured at 3% hematocrit in human O^+ RBCs in RPMI-1640 media supplemented with 25 mM HEPES, 50 mg/L hypoxanthine, 2 mM L-glutamine, 0.21% sodium bicarbonate, 0.5% (w/v) AlbuMAXII (Invitrogen) and 10 μg/mL gentamycin. Culture flasks were kept in modular incubator chambers (Billups-Rothenberg) in a 5% O2, 5% CO2, and 90% N2 atmosphere at 37°C. Synchronized ring-stage parasites were obtained by two consecutive rounds of treatment with 5% D-sorbitol in 48-hour intervals. […] This was done by exposing cultures at 1% hematocrit and 0.3% parasitemia in 96-well plates in the presence of drugs in a two-fold 10 or 12-point serial dilution in duplicate along with drug-free controls. After a 72-hour incubation, parasite survival was assessed by flow cytometry on an iQue flow cytometer (Sartorius) using SYBR Green and MitoTracker Deep Red FM (Life Technologies) as nuclear stain and vital dye, respectively. Parasite survival was determined as a percentage relative to drug-free control. IC50 values were interpolated from log concentration versus response curves in Prism 9 (GraphPad Prism Software Inc.).

[4] = system: P. falciparum Dd2 ABS parasites; assay: ABS parasite survival assay, 72 h, flow cytometry; type: cell-based; details: Plasmodium falciparum, DD2, ABS parasites, N = 3; read-out: IC50 Dd2
Method: as §1

[5] = MTT cytotoxicity assay, 72 h; type: cell-based, monkey; details: monkey, COS-7 cells; MTT, 72 h, N = 3
Method: (§2) Human hepatoma (HepG2) and fibroblast-like monkey kidney cells (COS-7) were cultured in Dulbecco’s Modified Eagle Medium supplemented with 10% heat-inactivated fetal bovine serum and gentamycin (40 mg/L) at 37°C in a 5% CO2 atmosphere. Cytotoxicity of test compounds was measured by metabolic reduction of mitochondrial enzymes using the MTT assay (3-[4,5-dimethyl-thiazol-2-yl]-2,5-diphenyltetrazolium chloride). Cells were seeded at 10^5 cells/well in 96-well plates and incubated for 72 hours in the presence of a 2-fold 12-point serial dilution of drugs along with drug-free controls. After adding 15 μL of MTT (5 mg/mL) to the wells, plates were centrifuged at 317g for 5 minutes and the pellet was resuspended in isopropanol. Absorbance was measured at 570 nm (CLARIOStar, Labtech BMG). Cell viability was determined by formazan production, and was expressed as a percentage of untreated control wells.

COS-7 cells = assay: MTT cytotoxicity assay, 72 h; type: cell-based, monkey
Method: as §2

[6] = MTT cytotoxicity assay, 72 h; type: cell-based, Human; details: human, HepG2 cells; MTT, 72 h, N = 3
Method: as §2

HepG2 cells = assay: MTT cytotoxicity assay, 72 h; type: cell-based, Human
Method: as §2

P. falciparum Dd2^Dd2 = system: P. falciparum Dd2^Dd2; design: key to Phenotype, Dd2^Dd2: S: sensitive; R: resistant; details: cited from earlier work
P. falciparum Dd2^T93S = system: P. falciparum Dd2^T93S; design: key to Phenotype, Dd2^T93S: S: sensitive; R: resistant; details: cited from earlier work
P. falciparum Dd2^H97Y = system: P. falciparum Dd2^H97Y; design: key: S: sensitive; R: resistant; details: ref [19],[20],[51]; cited from earlier work
P. falciparum Dd2^F145I = system: P. falciparum Dd2^F145I; design: key to Phenotype, Dd2^F145I: S: sensitive; R: resistant; details: cited from earlier work
P. falciparum Dd2^I218F = system: P. falciparum Dd2^I218F; design: key to Phenotype, Dd2^I218F: S: sensitive; R: resistant; details: cited from earlier work
P. falciparum Dd2^M343L = system: P. falciparum Dd2^M343L; design: key to Phenotype, Dd2^M343L: S: sensitive; R: resistant; details: cited from earlier work
P. falciparum Dd2^G353V = system: P. falciparum Dd2^G353V; design: key to Phenotype, Dd2^G353V: S: sensitive; R: resistant; details: cited from earlier work
P. falciparum Dd2^3D7 = system: P. falciparum Dd2^3D7; design: key: S: sensitive; R: resistant; details: ref [19],[20],[51]; cited from earlier work
P. falciparum 7G8^7G8 = system: P. falciparum 7G8^7G8; design: key to Phenotype, 7G8^7G8: S: sensitive; R: resistant; details: cited from earlier work
P. falciparum 7G8^F145I = system: P. falciparum 7G8^F145I; design: key to Phenotype, 7G8^F145I: S: sensitive; R: resistant; details: cited from earlier work
P. falciparum 7G8^C350R = system: P. falciparum 7G8^C350R; design: key to Phenotype, 7G8^C350R: S: sensitive; R: resistant; details: cited from earlier work
P. falciparum NF10^YF = system: P. falciparum NF10^YF; design: method as in ref 1 Veiga et al. 2016; details: means ± SEM, N 6; ref 1 Veiga et al. 2016; read-out: IC50 NF10YF; cited from earlier work
P. falciparum NF10^NF = system: P. falciparum NF10^NF; design: method as in ref 1 Veiga et al. 2016; details: means ± SEM, N 6; ref 1 Veiga et al. 2016; read-out: IC50 NF10NF; cited from earlier work
[7] = system: pool of barcoded P. falciparum lines (Dd2 and 3D7 backgrounds); assay: Resistome growth assay, pool of 51 barcoded lines; type: cell-based, Plasmodium falciparum; details: 3 x IC50 constant
Method: The resistome growth assay employs a parasite pool consisting of 51 barcoded lines including both Dd2 and 3D7 genetic backgrounds, with wild-type lines for both (S3 Table). Most lines used were derived from in vitro resistance selection experiments, with others having been CRISPR edited. All lines were barcoded via CRISPR editing of a 101bp barcode cassette into the non-essential pfpare locus (PF3D7_0709700). Parasites were cultured in RPMI-1640 medium supplemented with HEPES (5.94 g/L), NaHCO3 (2.1 g/L), glutamax (1×), hypoxanthine (50 mg/L), gentamycin ([…]), and AlbumaxII (5 g/L) at a […]. Parasite growth was monitored over 14 days by flow cytometry (Cytoflex, Beckman Coulter) by staining with 1× SYBR Green and 0.2 μM MitoTracker Deep Red. Parasitemia adjustments were made to maintain a healthy range of <5% parasitemia. Parasite cultures were harvested at day 14 and lysed by saponin (0.05%), with pellets washed twice with PBS. Barcodes were PCR amplified using 5 μL of parasite pellet and sequenced by Illumina amplicon sequencing.

[8] = Dd2Dd2, mean ± SEM, ref 1 (Ross et al., 2018)
[9] = Dd2T93S, mean ± SEM, ref 2 (Dhingra et al., 2019)
[10] = Dd2F145I, mean ± SEM, ref 1 (Ross et al., 2018)
[11] = Dd2I218F, mean ± SEM, ref 2 (Dhingra et al., 2019)
[12] = Dd2M343L, mean ± SEM, ref 1 (Ross et al., 2018)
[13] = Dd2G353V, mean ± SEM, ref 1 (Ross et al., 2018)

O=C1C(O)=C([C@H]2CC[C@H](c3ccc(Cl)cc3)CC2)C(=O)c2ccccc21 [atovaquone]
effect on hepatic infection [1]: almost completely ablated infection
competitive inhibition of [3H]CQ or [3H]PPQ transport (PfCRT 7G8 isoform): No competitive inhibition

CCc1nc(N)nc(N)c1-c1ccc(Cl)cc1 [pyrimethamine]
competitive inhibition of [3H]CQ or [3H]PPQ transport (PfCRT 7G8 isoform): No competitive inhibition

CN(C)c1ccc2nc3ccc(=[N+](C)C)cc-3sc2c1 [methylene blue]
% Inhibition of viability, mature gametocytes ([2]; mean, N = 3): 100%
% Inhibition of viability, mature gametocytes ([2]; mean, N = 3, listed as MB): 100.00%
% Inhibition of viability, mature gametocytes ([2]; single replicates): 100.00%

COc1ccc(Nc2ccnc3ccccc23)cc1 [LDT-627]
IC50 [3]: 2500 ± 800 nM
IC50 [4]: 2000 ± 200 nM
CC50 at 72 h [5]: 54500 ± 16700 nM
SI (CC50 COS-7 / IC50 3D7) (COS-7 cells): 22.1
CC50 at 72 h [6]: 12700 ± 6400 nM
SI (CC50 HepG2 / IC50 3D7) (HepG2 cells): 5.2

Clc1ccc2c(N3CCN(CCCN4CCN(c5ccnc6cc(Cl)ccc56)CC4)CC3)ccnc2c1 [PPQ, piperaquine]
IC50 (P. falciparum Dd2^Dd2; [8]): 27.6 ± 3.1 nM
IC90 (P. falciparum Dd2^Dd2; [8]): 50.2 ± 4.2 nM
Phenotype, Dd2^Dd2 (P. falciparum Dd2^Dd2; ref [19],[20],[51]): S
IC50 (P. falciparum Dd2^T93S; [9]): 31.9 ± 5.6 nM
IC90 (P. falciparum Dd2^T93S; [9]): 6880 ± 3420 nM
Phenotype, Dd2^T93S (P. falciparum Dd2^T93S; ref [19],[20],[51]): R
Phenotype, Dd2^H97Y (P. falciparum Dd2^H97Y): R
IC50 (P. falciparum Dd2^F145I; [10]): 65.3 ± 3.1 nM
IC90 (P. falciparum Dd2^F145I; [10]): 5770 ± 666 nM
Phenotype, Dd2^F145I (P. falciparum Dd2^F145I; a: sensitized to CQ compared to the parental line but not fully sensitive, ref [19],[20],[51]): R
IC50 (P. falciparum Dd2^I218F; [11]): 42 ± 20.8 nM
IC90 (P. falciparum Dd2^I218F; [11]): 8600 ± 1660 nM
Phenotype, Dd2^I218F (P. falciparum Dd2^I218F; ref [19],[20],[51]): R
IC50 (P. falciparum Dd2^M343L; [12]): 37.6 ± 4.8 nM
IC90 (P. falciparum Dd2^M343L; [12]): 93.1 ± 9.7 nM
Phenotype, Dd2^M343L (P. falciparum Dd2^M343L; ref [19],[20],[51]): R
IC50 (P. falciparum Dd2^G353V; [13]): 31.8 ± 7.4 nM
IC90 (P. falciparum Dd2^G353V; [13]): 3740 ± 1980 nM
Phenotype, Dd2^G353V (P. falciparum Dd2^G353V; ref [19],[20],[51]): R
Phenotype, Dd2^3D7 (P. falciparum Dd2^3D7): S
IC50 (P. falciparum 7G8^7G8; 7G87G8, mean ± SEM, ref 3 (Kim et al., 2019)): 21.4 ± 1 nM
Phenotype, 7G8^7G8 (P. falciparum 7G8^7G8; ref [19],[20],[51]): S
IC50 (P. falciparum 7G8^F145I; 7G8F145I, mean ± SEM, ref 3 (Kim et al., 2019)): 28.7 ± 1 nM
Phenotype, 7G8^F145I (P. falciparum 7G8^F145I; ref [19],[20],[51]): R
IC50 (P. falciparum 7G8^C350R; 7G8C350R, mean ± SEM, ref 3 (Kim et al., 2019)): 36.5 ± 2 nM
Phenotype, 7G8^C350R (P. falciparum 7G8^C350R; ref [19],[20],[51]): R
IC50 (P. falciparum NF10^YF): 41.8 ± 3.4 nM
IC50 (P. falciparum NF10^NF): 35.4 ± 2.1 nM

CNC(=O)c1ccc(-c2cnc3cnc(C(=O)N(C)c4ccc(Cl)cc4)cn23)cc1 [KDU691]
recrudescence of barcoded pool after [7]: 9 days and 7 days
